In ChEMBL document CHEMBL5518174 (Eur J Med Chem, 2024):
Active and inactive are the calls of the source. The calls are words filed in the database; no cut-off is given here.

Experiments:
NCI-H1975 [1] = assay: cells; format: functional, cell-based; conditions: Homo sapiens, NCI-H1975, 48 h
Description: Cytotoxicity against human NCI-H1975 cells assessed as inhibition of cell growth incubated for 48 hrs by Celltiter-glo assay

Histone deacetylase = assay: Inhibition of HDAC in human HeLa cells nuclear extract; format: subcellular, Nucleus
MDA-MB-231 = assay: Cytotoxicity against human MDA-MB-231 cells assessed as inhibition of cell growth incubated for 48 hrs by Celltiter-glo assay; format: functional, cell-based; conditions: MDA-MB-231, 48 h
[2] = Antiproliferative activity against human CL100 cells harboring mutated EGFR assessed as inhibition of cell growth by SRB assay; format: functional, cell-based
CL1-0 = assay: Antiproliferative activity against human CL1-0 cells harboring wild-type EGFR assessed as inhibition of cell growth by SRB assay; format: functional, cell-based
NCI-H1975 [3] = assay: Induction of katanin activation mediated microtubule fragmentation in human NCI-H1975 cells at 80 nM incubated for 12 hrs by FITC/DAPI staining based confocal laser microscopic analysis; format: cell-based; conditions: filed as activator
[4] = Antiproliferative activity against human CL1-5 cells harboring wild-type EGFR assessed as inhibition of cell growth by SRB assay; format: functional, cell-based
CL97 = assay: Antiproliferative activity against human CL97 cells harboring mutated EGFR assessed as inhibition of cell growth by SRB assay; format: functional, cell-based
[5] = Antiproliferative activity against human CL141 cells harboring wild-type EGFR assessed as inhibition of cell growth by SRB assay; format: functional, cell-based
[6] = Antiproliferative activity against human CL83 cells harboring wild-type EGFR assessed as inhibition of cell growth by SRB assay; format: functional, cell-based
[7] = Antiproliferative activity against human CL152 cells harboring wild-type EGFR assessed as inhibition of cell growth by SRB assay; format: functional, cell-based
[8] = Antiproliferative activity against human CL25 cells harboring mutated EGFR assessed as inhibition of cell growth by SRB assay; format: functional, cell-based

CCOc1ccc(-c2nc(C(=O)NCCCCCCC(=O)NO)c3[nH]c(=O)n(-c4ccccc4OC)c3n2)cc1S(N)(=O)=O
IC50 (NCI-H1975 [1]): 24800 nM | IC50 (Histone deacetylase): 0.06 µM

CCOc1ccc(-c2nc(C(=O)NCCCCCCC(=O)NO)c3[nH]c(=O)n(-c4cccnc4OC)c3n2)cc1
IC50 (NCI-H1975 [1]): 300 nM | IC50 (Histone deacetylase): 0.03 µM | IC50 (MDA-MB-231): 60 nM

CCOc1ccc(-c2nc(C(=O)NCCCCCCC(=O)Nc3ccccc3N)c3[nH]c(=O)n(-c4ccccc4OC)c3n2)cc1
IC50 (NCI-H1975 [1]): 2200 nM | IC50 (Histone deacetylase): > 100 µM

CCOc1ccc(-c2nc(C(=O)NCCCCCCC(=O)Nc3nccs3)c3[nH]c(=O)n(-c4ccccc4OC)c3n2)cc1
IC50 (NCI-H1975 [1]): 2600 nM | IC50 (Histone deacetylase): > 100 µM

COc1ccccc1-n1c(=O)[nH]c2c(C(=O)NCCCCCCC(=O)NO)nc(C(C)C)nc21
IC50 (NCI-H1975 [1]): 1500 nM | IC50 (Histone deacetylase): 0.2 µM

CCOc1ccc(-c2nc(C(=O)NO)c3[nH]c(=O)n(-c4ccccc4OC)c3n2)cc1
IC50 (Histone deacetylase): > 100 µM

CCOc1ccc(-c2nc(C(=O)NCCCCCCC(=O)NC3CCCCC3O)c3[nH]c(=O)n(-c4ccccc4OC)c3n2)cc1 (centres undefined)
IC50 (NCI-H1975 [1]): 1400 nM | IC50 (Histone deacetylase): > 100 µM

CCOc1ccc(-c2nc(C(=O)NCCCCC/C(N)=N/O)c3[nH]c(=O)n(-c4ccccc4OC)c3n2)cc1
IC50 (NCI-H1975 [1]): 500 nM | IC50 (Histone deacetylase): > 100 µM

CCOc1ccc(-c2nc(C(=O)NCCCCCCC(=O)NO)c3[nH]c(=O)n(-c4ccccc4OC)c3n2)cc1
IC50 [2]: 360 nM | IC50 (CL1-0): 60 nM | Activity (NCI-H1975 [3]): Active | IC50 [4]: 170 nM | IC50 (NCI-H1975 [1]): 140 nM | IC50 (CL97): 240 nM | IC50 [5]: 270 nM | IC50 (Histone deacetylase): 0.17 µM | IC50 [6]: 320 nM | IC50 (MDA-MB-231): 40 nM | IC50 [7]: 260 nM | IC50 [8]: 320 nM

CCOc1ccc(-c2nc(C(=O)NCCCCCCC(=O)O)c3[nH]c(=O)n(-c4ccccc4OC)c3n2)cc1
IC50 (NCI-H1975 [1]): 3400 nM | IC50 (Histone deacetylase): > 100 µM

CCOc1ccc(-c2nc(C(=O)NCCCCCCC(=O)NO)c3[nH]c(=O)n(-c4cccnc4OC)c3n2)cn1
IC50 (NCI-H1975 [1]): 410 nM | IC50 (Histone deacetylase): 0.002 µM | IC50 (MDA-MB-231): 320 nM

CCOc1ccc(-c2nc(C(=O)NCCOCCOCC(=O)NO)c3[nH]c(=O)n(-c4ccccc4OC)c3n2)cc1
IC50 (NCI-H1975 [1]): 4600 nM | IC50 (Histone deacetylase): 10.8 µM

CCOc1ccc(-c2nc(C(=O)NCCCc3nc(C(=O)NO)cs3)c3[nH]c(=O)n(-c4ccccc4OC)c3n2)cc1
IC50 (NCI-H1975 [1]): 4900 nM | IC50 (Histone deacetylase): 14.2 µM

CCOc1ccc(-c2nc(C(=O)NCCCCCCC(=O)N(Cc3ccccn3)Cc3ccccn3)c3[nH]c(=O)n(-c4ccccc4OC)c3n2)cc1
IC50 (NCI-H1975 [1]): 2300 nM | IC50 (Histone deacetylase): > 100 µM

CCOc1ccc(-c2nc(C(=O)NCCCCCCC(=O)CSC(C)=O)c3[nH]c(=O)n(-c4ccccc4OC)c3n2)cc1
IC50 (NCI-H1975 [1]): 5600 nM | IC50 (Histone deacetylase): 2.83 µM

CCOc1ccc(-c2nc(C(N)=O)c3[nH]c(=O)n(-c4ccccc4OC)c3n2)cc1
IC50 (Histone deacetylase): > 100 µM

CCOc1ccc(-c2nc(C(=O)NCCCCNC(=O)CN)c3[nH]c(=O)n(-c4ccccc4OC)c3n2)cc1.Cl
IC50 (NCI-H1975 [1]): 16200 nM | IC50 (Histone deacetylase): > 100 µM

COc1ccc(-c2nc(C(=O)NCCCCCCC(=O)NO)c3[nH]c(=O)n(-c4ccccc4OC)c3n2)cc1O
IC50 (NCI-H1975 [1]): 1200 nM | IC50 (Histone deacetylase): 0.01 µM | IC50 (MDA-MB-231): 310 nM

CCOc1ccc(-c2nc(C(=O)NCCCCCCCN(Cc3ccccn3)Cc3ccccn3)c3[nH]c(=O)n(-c4ccccc4OC)c3n2)cc1
IC50 (NCI-H1975 [1]): 2700 nM | IC50 (Histone deacetylase): > 100 µM

CCOc1ccc(-c2nc(C(=O)NCCCCCNC(=O)CN)c3[nH]c(=O)n(-c4ccccc4OC)c3n2)cc1.Cl
IC50 (NCI-H1975 [1]): 4900 nM | IC50 (Histone deacetylase): > 100 µM

CCOc1ccc(-c2nc(C(=O)NCCCCCCC(=O)NOC)c3[nH]c(=O)n(-c4ccccc4OC)c3n2)cc1
IC50 (NCI-H1975 [1]): 400 nM | IC50 (Histone deacetylase): > 100 µM

CCOc1ccc(-c2nc(C(=O)NCCCCCCNC(=O)CN)c3[nH]c(=O)n(-c4ccccc4OC)c3n2)cc1.Cl
IC50 (NCI-H1975 [1]): 2400 nM | IC50 (Histone deacetylase): > 100 µM

CCOc1ccc(-c2nc(C(=O)NOCCCCCC(=O)NO)c3[nH]c(=O)n(-c4ccccc4OC)c3n2)cc1
IC50 (NCI-H1975 [1]): 250 nM | IC50 (Histone deacetylase): 0.13 µM | IC50 (MDA-MB-231): 100 nM

CCOc1ccc(-c2nc(C(=O)NCc3ccc(C(=O)NO)cc3)c3[nH]c(=O)n(-c4ccccc4OC)c3n2)cc1
IC50 (NCI-H1975 [1]): 130 nM | IC50 (Histone deacetylase): 0.25 µM | IC50 (MDA-MB-231): 70 nM

CCOc1ccc(-c2nc(C(=O)NCCCCCCNC(=O)NO)c3[nH]c(=O)n(-c4ccccc4OC)c3n2)cc1
IC50 (NCI-H1975 [1]): 3300 nM | IC50 (Histone deacetylase): > 100 µM

COc1ccccc1-n1c(=O)[nH]c2c(C(N)=O)nc(-c3ccc(C(C)C)cc3)nc21
IC50 (NCI-H1975 [1]): > 100000 nM | IC50 (Histone deacetylase): > 100 µM

CCOc1ccc(-c2nc(C(=O)NCCCCCCNC(N)=O)c3[nH]c(=O)n(-c4ccccc4OC)c3n2)cc1
IC50 (NCI-H1975 [1]): 2000 nM | IC50 (Histone deacetylase): > 100 µM

CCOc1ccc(-c2nc(C(=O)NCCCCCCC(=O)NO)c3[nH]c(=O)n(-c4ccccc4OC)c3n2)cn1
IC50 (NCI-H1975 [1]): 400 nM | IC50 (Histone deacetylase): 0.04 µM | IC50 (MDA-MB-231): 60 nM

CCOc1ccc(-c2nc(C(=O)NCCCCCCC(=O)N(C)O)c3[nH]c(=O)n(-c4ccccc4OC)c3n2)cc1
IC50 (NCI-H1975 [1]): 1500 nM | IC50 (Histone deacetylase): > 100 µM

CCOc1ccc(-c2nc(C(=O)O)c3[nH]c(=O)n(-c4ccccc4OC)c3n2)cc1
IC50 (NCI-H1975 [1]): > 100000 nM | IC50 (Histone deacetylase): > 100 µM
